Assay results reported in patent US20240271089A1, “METHODS TO GENERATE MACULAR, CENTRAL AND PERIPHERAL RETINAL PIGMENT EPITHELIAL CELLS” (THE U.S.A., as represented by the Secretary, Department of …, priority 2021, published 2024).
Entries after “also recorded” stand apart in the source; their conditions may differ.

How the values were obtained:
iPSC-RPE [1] = test: iPSC-RPE cell area morphometry (REShAPE) after compound treatment; assay type: cell-based; settings: compared with macular (P1) and peripheral (P3) human RPE and the DMSO control
Method: FIG. 13. Testing different concentrations of AGN 193109 and endo-IWR-1 to reproduce macular (P1), central (P2) and peripheral (P3) cells. A range of concentrations of AGN 193109 and endo-IWR-1 were tested that could be used to reproduce macular, central and peripheral RPE populations (labeled P1, P2 and P3, respectively). Population 1 (P1, macular cells) can be reproduced with […] of AGN 193109. Population 3 (P3, peripheral) can be reproduced with 1 mM-4 mM of endo-IWR-1. A gradient of AGN 193109 and endo-IWR-1 could be used to replicate human RPE population 2 (P2, central)—central RPE cells. In one example, this can be reproduced with 25 nM-50 nM of AGN 193109 and 0.1 mM-0.5 mM of endo-IWR-1. Boxplots relative to DMSO, P1, P2 and P3 are plotted on the left side of the graph as a reference for cell size comparison. Five concentrations were tested for AGN 193109 and endo-IWR-1.
Screening of Compound Library and Imaging: 115 drugs targeting various developmental pathways or cytoskeletal stressors were selected to form a new developmental library of compounds. The drugs are either activators or inhibitors of various signaling pathways and target proteins at different levels of the signaling cascades. For each drug, an initial concentration was selected, and adjustments made to the concentration of each drug. The assays were performed on iPSC-derived committed RPE. For every drug, the concentration was lowered if toxicity was detected or increased if there was no evident effect on cell morphology in comparison to control. The list of compounds tested can be found in Table 1. The high-content screening was performed in 384-well plates (cat #6057300, Perkin Elmer) using a range of 3 different concentrations (3×, 1×, 0.3×). All drugs were reconstituted in dimethyl sulfoxide (DMSO, cat #D2650, Sigma) and 40 ul of each drug was aliquoted in triplicate in a 384-well master plate. Serial dilutions with RPEGM were then performed to obtain the final desired working concentrations and the final plates were stored at −80° C. […]

iPSC-RPE [2] = test: Trans-epithelial electrical resistance (TER) of treated iPSC-RPE monolayer; assay type: cell-based, human; settings: for TER relative to cutoff / epithelial barrier integrity, in words: cutoff of 400 ohm*cm^2; for trans-epithelial electrical resistance (TER): fully mature iPSC-RPE, minimum threshold 400 Ωcm^2, DMSO around 1100 Ωcm^2
Method: (§1) Different techniques were used to study RPE morphologic features.
At this point the trans-epithelial electrical resistance (TER) was assayed to confirm the quality of differentiation and examine the effect of drugs on tight junction integrity. The minimum threshold of 400 Ωcm^2 for epithelial resistance per unit area is used to determine good batches of differentiation.
Trans-epithelial electrical resistance (TER) is a measure of the tightness of the monolayer. The tighter the monolayer, the healthier are the cells in the monolayer. A cutoff of 400 ohm*cm^2 was used to exclude cells with low TER. […] The range specifies 90% of the data.

iPSC-RPE [3] = test: Scanning electron microscopy of apical processes of treated iPSC-RPE; assay type: cell-based, human; settings: for type of apical processes enriched: SEM, DMSO control shows both petal and finger-like types
Method: FIG. 11. Defining petal (undulated) and finger-like apical processes. The transversal section of apical processes was measured to precisely define their shape. Petal-like apical processes, obtained by treating RPE cells with AGN 193109, have an average transversal length of 1.68 μm (length min 0.5, max 4 μm) and width of 0.20 μm (width min 0.1, max 1 μm). The petal-like apical processes are also wavy along their length. The width of the undulation ranges from 0.2 to 2 μm. Finger-like apical processes, obtained by treating RPE cells with endo-IWR-1, are cylindrical and have the same average transversal length and width of 0.23 μm (min 0.1, max 1 microns). An example of how measurements of the apical processes was done is shown for each type of apical processed.
as §1
(§2) Finally, transmission electron microscopy (TEM) was used to detect fine morphological alterations, whereas scanning electron microscopy (SEM) was essential to study modifications in apical processes structures. […] In DMSO-treated iPSC-RPE we found both types of apical processes, petal and finger-like.

iPSC-RPE [4] = test: Pigmentation (brightfield), gross (H&E) and fine (TEM) morphology of treated iPSC-RPE; assay type: cell-based, human; settings: for gross cell morphology: H&E staining; for gross cell morphology / pigmentation levels / fine intracellular structure: AGN 193109 0.2 μM, endo-IWR-1 4 uM; for pigmentation levels: brightfield imaging, compared with DMSO; for fine intracellular structure: transmission electron microscopy; for effect on iPSC-RPE health / healthy RPE phenotype: verified by TER, brightfield, H&E and TEM
Text: as §1
Brightfield imaging was used to determine RPE pigmentation defects, while hematoxylin and eosin (H&E) staining was valuable to inspect gross morphologic alterations of the monolayer. A section of transwell membrane was cut and mounted on a glass slide for brightfield imaging. Pigmentation levels were preserved after ENDO-1-IWR and AGN 193109 treatments as compared to DMSO-treated iPSC-RPE.
as §2
AGN 193109 was used at 0.2.μM and endo-IWR-1 at 4 uM. Both agents were dissolved in DMSO, so that the final concentration of DMSO was not more than 0.1%. The final concentration of DMSO control was 0.1%. The compounds were added in RPE maturation medium until cells were mature. Gross cell morphology was also analyzed (FIGS. 15B, 15E, and 15F, left image) to detect possible abnormalities. Fine intracellular structures were examined for alterations with transmission electron microscopy (TEM, FIGS. 15B, 15E, and 15F, right image).

iPSC-RPE cells = test: Phagocytosis test with labelled bovine outer segments, flow cytometry; assay type: cell-based, human; settings: purified bovine outer segments, 4 hours, One-way ANOVA showed no difference
Method: iPSC-RPE cells were provided purified bovine outer segment (mostly rod photoreceptors) to phagocytose. The outer segments were labelled with a dye that fluoresces when the outer segments are phagocytosed. RPE cells were incubated for 4 hours with outer segments and then analyzed with flow cytometry to measure outer segment ingestion, or put back in the incubator for 20 hours before performing flow cytometry to measure outer segment digestion.

iPSC-RPE [5] = test: Acid phosphatase activity in lysates of treated RPE cells (p-nitrophenyl phosphate); assay type: cell-based, human; settings: compared with DMSO- or endo-IWR-1-treated cells
Method: Acid phosphatase has higher expression in the macula (Boulton et al., The British Journal of Ophthalmology 78 (2), 125-9, doi: 10.1136/bjo.78.2.125 (1994)). This enzyme has an important role in photoreceptor outer segment digestion. The acid phosphatase activity was determined in cells treated with DMSO, AGN 193109 or endo-IWR-1. For these studies, RPE cells were lysed in distilled water to extract the enzyme. The lysates were then incubated with p-nitrophenyl phosphate, a phosphatase substrate that turns yellow when dephosphorylated by acid phosphatase. The color of the solution was measured with a spectrophotometer to estimate the enzyme activity.

Structure (SMILES) | human RPE population whose cell size is reproduced by treated iPSC-RPE (iPSC-RPE [1]) | human RPE population whose cell size is reproduced by treated iPSC-RPE (iPSC-RPE [1]; listed as ENDO-1-IWR) | TER relative to cutoff / epithelial barrier integrity, in words (iPSC-RPE [2]) | trans-epithelial electrical resistance (TER) (iPSC-RPE [2]) | type of apical processes enriched (iPSC-RPE [3]) | type of apical processes enriched (iPSC-RPE [3]; listed as ENDO-1-IWR) | average transversal length of apical processes (iPSC-RPE [3]; transversal section, FIG. 11) [μm] | average transversal width of apical processes (iPSC-RPE [3]; transversal section, FIG. 11) [μm] | gross cell morphology (iPSC-RPE [4]) | gross cell morphology (iPSC-RPE [4]; listed as ENDO-1-IWR) | pigmentation levels (iPSC-RPE [4]) | pigmentation levels (iPSC-RPE [4]; listed as ENDO-1-IWR) | pigmentation levels (iPSC-RPE [4]; listed as Endo-IWR-1) | fine intracellular structure (iPSC-RPE [4]) | fine intracellular structure (iPSC-RPE [4]; listed as ENDO-1-IWR) | effect on iPSC-RPE health / healthy RPE phenotype (iPSC-RPE [4]; listed as ENDO-1-IWR) | outer segment ingestion (iPSC-RPE cells) | effect on iPSC-RPE health / healthy RPE phenotype (iPSC-RPE [4]) | acid phosphatase activity (iPSC-RPE [5])
O=C(Nc1cccc2cccnc12)c1ccc(N2C(=O)C3C4C=CC(C4)C3C2=O)cc1 (stereo not drawn) [endo-IWR-1, 4-(1,3,3a,4,7,7a-Hexahydro-1,3-dioxo-4,7-methano-2H-isoindol-2-yl)-N-8-quinolinyl-Benzamide] | peripheral | comparable to cells of peripheral RPE population P3 | well above the threshold; also recorded: well above this threshold | ~1200 Ωcm^2 | enriched cells with finger-like apical processes | all RPE cells were enriched uniquely by finger-like apical processes | 0.23 | 0.23 | nor did they affect gross or fine cell morphology | no gross morphological alterations were detected | did not alter pigmentation levels | preserved | did not alter pigmentation levels | nor did they affect gross or fine cell morphology | no fine intracellular structure defects were identified | not disruptive of iPSC-RPE health; also recorded: did not affect the healthy RPE phenotype | ingest (peripheral cells) more outer segments | – | –
Cc1ccc(C2=CCC(C)(C)c3ccc(C#Cc4ccc(C(=O)O)cc4)cc32)cc1 [AGN 193109, 4-[2-[5,6-Dihydro-5,5-dimethyl-8-(4-methylphenyl)-2-naphthalenyl]ethynyl]-benzoic acid] | comparable to the dimension of macular RPE population (P1) | – | well above the threshold; also recorded: well above this threshold | ~1600 Ωcm^2 | enriched RPE cells with petal-like apical processes (with undulation) | – | – | 0.20 | no gross morphological alterations were detected; also recorded: nor did they affect gross or fine cell morphology | – | preserved; also recorded: did not alter pigmentation levels | – | – | no fine intracellular structure defects were identified; also recorded: nor did they affect gross or fine cell morphology | – | – | – | not disruptive of iPSC-RPE health; also recorded: did not affect the healthy RPE phenotype | higher acid phosphatase activity
